In publication PMC5218480 (PLoS ONE, 2017):

Tested on: MV-4-11 cells
Assay: Gene expression microarray analysis (Affymetrix PrimeView) and GSEA
Format: cell-based, human
Parameters: RFU PODN (11730768_x_at) / Fold change /veh PODN (11730768_x_at) / RFU LINC00158 (11744669_a_at) / Fold change /veh LINC00158 (11744669_a_at) / RFU DUSP10 (11751237_a_at) / Fold change /veh DUSP10 (11751237_a_at) / RFU ID3 (11757404_x_at) / Fold change /veh ID3 (11757404_x_at) / RFU PLEKHG5 (11737974_s_at) / Fold change /veh PLEKHG5 (11737974_s_at) / RFU LRRC4B (11730491_at) / Fold change /veh LRRC4B (11730491_at) / RFU GIMAP4 (11747438_a_at) / Fold change /veh GIMAP4 (11747438_a_at) / RFU KRT8 (11758183_x_at) / Fold change /veh KRT8 (11758183_x_at) / RFU CNN1 (11734310_a_at) / Fold change /veh CNN1 (11734310_a_at) / RFU VPS37D (11726825_at) / Fold change /veh VPS37D (11726825_at) / RFU C10orf10 (11716522_x_at) / Fold change /veh C10orf10 (11716522_x_at) / RFU KIR2DL2 /// KIR2DL4 /// KIR2DL5A /// KIR2DL5B /// KIR2DS1 /// KIR2DS2 /// KIR2DS3 /// KIR2DS4 /// KIR3DL3 /// KIR3DL3 /// KIR3DS1 (11738374_at) / Fold change /veh KIR2DL2 /// KIR2DL4 /// KIR2DL5A /// KIR2DL5B /// KIR2DS1 /// KIR2DS2 /// KIR2DS3 /// KIR2DS4 /// KIR3DL3 /// KIR3DL3 /// KIR3DS1 (11738374_at) / RFU C1QL1 (11718748_at) / Fold change /veh C1QL1 (11718748_at) / RFU TMPRSS4 (11747572_a_at) / Fold change /veh TMPRSS4 (11747572_a_at) / RFU HAMP (11756126_x_at) / Fold change /veh HAMP (11756126_x_at) / RFU RNFT2 (11725882_a_at) / Fold change /veh RNFT2 (11725882_a_at) / RFU NR4A2 (11747474_a_at) / Fold change /veh NR4A2 (11747474_a_at) / RFU ABCC12 (11746883_a_at) / Fold change /veh ABCC12 (11746883_a_at) / RFU TMEM136 (11760407_x_at) / Fold change /veh TMEM136 (11760407_x_at) / RFU CLDN22 /// WWC2 (11732394_at) / Fold change /veh CLDN22 /// WWC2 (11732394_at) / RFU HLA-DPB1 (11760878_x_at) / Fold change /veh HLA-DPB1 (11760878_x_at) / RFU SPINT1 (11716480_a_at) / Fold change /veh SPINT1 (11716480_a_at) / RFU GAP43 (11754022_s_at) / Fold change /veh GAP43 (11754022_s_at) / RFU A4GNT (11735810_at) / Fold change /veh A4GNT (11735810_at) / RFU PRB3 (11715151_x_at) / Fold change /veh PRB3 (11715151_x_at) / RFU TUBB4B (11761932_at) / Fold change /veh TUBB4B (11761932_at) / RFU CAPN14 (11732068_a_at) / Fold change /veh CAPN14 (11732068_a_at) / RFU TMCC2 (11721928_a_at) / Fold change /veh TMCC2 (11721928_a_at) / RFU IRGQ (11745062_a_at) / Fold change /veh IRGQ (11745062_a_at) / RFU FAM174B (11720279_a_at) / Fold change /veh FAM174B (11720279_a_at) / RFU TMPRSS4 (11748680_a_at) / Fold change /veh TMPRSS4 (11748680_a_at) / RFU FAM212B (11763350_a_at) / Fold change /veh FAM212B (11763350_a_at) / RFU PLEKHG5 (11743358_a_at) / Fold change /veh PLEKHG5 (11743358_a_at) / RFU ZSCAN30 (11745921_a_at) / Fold change /veh ZSCAN30 (11745921_a_at) / RFU CMKLR1 (11741424_a_at) / Fold change /veh CMKLR1 (11741424_a_at) / RFU LOC101060620 /// MAPK8IP1 (11723275_at) / Fold change /veh LOC101060620 /// MAPK8IP1 (11723275_at) / RFU SPTSSB (11747773_x_at) / Fold change /veh SPTSSB (11747773_x_at) / RFU PRSS12 (11739890_at) / Fold change /veh PRSS12 (11739890_at) / RFU BIN1 (11741810_x_at) / Fold change /veh BIN1 (11741810_x_at) / RFU WNT11 (11732464_a_at) / Fold change /veh WNT11 (11732464_a_at) / RFU C10orf10 (11716521_a_at) / Fold change /veh C10orf10 (11716521_a_at) / RFU C5orf56 (11738089_at) / Fold change /veh C5orf56 (11738089_at) / RFU CYB561 (11721691_x_at) / Fold change /veh CYB561 (11721691_x_at) / RFU ANKRD19P (11752326_a_at) / Fold change /veh ANKRD19P (11752326_a_at) / RFU OR2T12 /// OR2T33 /// OR2T8 (11738714_s_at) / Fold change /veh OR2T12 /// OR2T33 /// OR2T8 (11738714_s_at) / RFU VCAN (11748164_a_at) / Fold change /veh VCAN (11748164_a_at) / RFU JSRP1 (11732532_at) / Fold change /veh JSRP1 (11732532_at) / RFU KRTAP10-11 (11738290_x_at) / Fold change /veh KRTAP10-11 (11738290_x_at) / RFU MYO3A (11730013_a_at) / Fold change /veh MYO3A (11730013_a_at) / RFU EBF3 (11725865_a_at) / Fold change /veh EBF3 (11725865_a_at) / RFU CAMK2N1 (11719241_x_at) / Fold change /veh CAMK2N1 (11719241_x_at) / RFU C5orf56 (11738088_a_at) / Fold change /veh C5orf56 (11738088_a_at) / RFU OLFML3 (11715873_a_at) / Fold change /veh OLFML3 (11715873_a_at) / RFU LOC100653217 /// NTM (11731650_a_at) / Fold change /veh LOC100653217 /// NTM (11731650_a_at) / RFU MAPK11 (11762145_a_at) / Fold change /veh MAPK11 (11762145_a_at) / RFU FIZ1 (11724087_x_at) / Fold change /veh FIZ1 (11724087_x_at) / RFU OASL (11726364_x_at) / Fold change /veh OASL (11726364_x_at) / RFU SOX15 (11748057_x_at) / Fold change /veh SOX15 (11748057_x_at) / RFU CD79A (11719716_a_at) / Fold change /veh CD79A (11719716_a_at) / RFU HIST1H1D (11736915_at) / Fold change /veh HIST1H1D (11736915_at) / RFU CASKIN2 (11723855_a_at) / Fold change /veh CASKIN2 (11723855_a_at) / RFU LOC730098 (11760151_x_at) / Fold change /veh LOC730098 (11760151_x_at) / RFU OR4N2 (11742367_at) / Fold change /veh OR4N2 (11742367_at) / RFU PRRT2 (11749266_a_at) / Fold change /veh PRRT2 (11749266_a_at) / RFU SNX32 (11753110_a_at) / Fold change /veh SNX32 (11753110_a_at) / RFU CDHR5 (11726645_a_at) / Fold change /veh CDHR5 (11726645_a_at) / RFU RCAN1 (11760418_a_at) / Fold change /veh RCAN1 (11760418_a_at) / RFU FAM167A (11723789_a_at) / Fold change /veh FAM167A (11723789_a_at) / RFU FAM26E (11764081_at) / Fold change /veh FAM26E (11764081_at) / RFU ISYNA1 (11749810_s_at) / Fold change /veh ISYNA1 (11749810_s_at) / RFU ACY1 (11761880_at) / Fold change /veh ACY1 (11761880_at) / RFU 11764098_at / Fold change /veh 11764098_at / RFU SAMD14 (11745864_x_at) / Fold change /veh SAMD14 (11745864_x_at) / RFU NPB (11741838_a_at) / Fold change /veh NPB (11741838_a_at) / RFU TMPRSS6 (11731388_a_at) / Fold change /veh TMPRSS6 (11731388_a_at) / RFU KRTAP10-2 (11738614_at) / Fold change /veh KRTAP10-2 (11738614_at) / RFU ARHGAP8 /// PRR5-ARHGAP8 (11727945_x_at) / Fold change /veh ARHGAP8 /// PRR5-ARHGAP8 (11727945_x_at) / RFU KRTAP5-7 /// NADSYN1 (11734609_at) / Fold change /veh KRTAP5-7 /// NADSYN1 (11734609_at) / RFU RASL12 (11751679_a_at) / Fold change /veh RASL12 (11751679_a_at) / RFU CDKN2B (11736163_a_at) / Fold change /veh CDKN2B (11736163_a_at) / RFU PRF1 (11729649_at) / Fold change /veh PRF1 (11729649_at) / RFU, ZNF638 /// ZNF638-IT1 / Fold change vs veh, ZNF638 /// ZNF638-IT1 / RFU, PANK3 / Fold change vs veh, PANK3 / RFU, SH3YL1 / Fold change vs veh, SH3YL1 / RFU, ZEB2 / Fold change vs veh, ZEB2 / RFU, NRIP1 / Fold change vs veh, NRIP1 / RFU, PTTG1IP / Fold change vs veh, PTTG1IP / RFU, CAPN2 / Fold change vs veh, CAPN2 / RFU, MED14 / Fold change vs veh, MED14 / RFU, SNORA58 / Fold change vs veh, SNORA58 / RFU, C1orf63 / Fold change vs veh, C1orf63 / RFU, LRRFIP1 / Fold change vs veh, LRRFIP1 / RFU, NDUFAF7 / Fold change vs veh, NDUFAF7 / RFU, SLC12A2 / Fold change vs veh, SLC12A2 / RFU, IBTK / Fold change vs veh, IBTK / RFU, ESF1 / Fold change vs veh, ESF1 / Fold change vs veh, TMEM50B / RFU, TAOK1 / Fold change vs veh, TAOK1 / RFU, ACBD3 / Fold change vs veh, ACBD3 / RFU, TMA16 / Fold change vs veh, TMA16 / RFU, RWDD3 / Fold change vs veh, RWDD3 / RFU, BCAT1 / Fold change vs veh, BCAT1 / RFU, EDEM3 / Fold change vs veh, EDEM3 / RFU, TMEM33 / Fold change vs veh, TMEM33 / RFU, WDR75 / Fold change vs veh, WDR75 / RFU, AHCTF1 / Fold change vs veh, AHCTF1 / RFU, TFRC / Fold change vs veh, TFRC / RFU, ZDHHC17 / Fold change vs veh, ZDHHC17 / RFU, NOM1 / Fold change vs veh, NOM1 / RFU, ARL8B / Fold change vs veh, ARL8B / RFU, ZBTB11 / Fold change vs veh, ZBTB11 / RFU, TAMM41 / Fold change vs veh, TAMM41 / RFU, KIAA1704 /// LOC100996395 / Fold change vs veh, KIAA1704 /// LOC100996395 / RFU, ING1 / Fold change vs veh, ING1 / RFU, TRMT61B / Fold change vs veh, TRMT61B / RFU, FUBP3 / Fold change vs veh, FUBP3 / RFU, TP53 / Fold change vs veh, TP53 / RFU, TNKS2 / Fold change vs veh, TNKS2 / RFU, ZFP14 / Fold change vs veh, ZFP14 / RFU, ACTR2 / Fold change vs veh, ACTR2 / RFU, PPP3R1 / Fold change vs veh, PPP3R1 / RFU, PIK3R1 / Fold change vs veh, PIK3R1 / RFU, HNRNPA1 / Fold change vs veh, HNRNPA1 / RFU, RNF170 / Fold change vs veh, RNF170 / RFU, ZNF28 / Fold change vs veh, ZNF28 / RFU, RNGTT / Fold change vs veh, RNGTT / RFU, OGT / Fold change vs veh, OGT / RFU, BRD1 / Fold change vs veh, BRD1 / RFU, MARS / Fold change vs veh, MARS / RFU, ZNF655 / Fold change vs veh, ZNF655 / RFU, FAHD1 / Fold change vs veh, FAHD1 / RFU, BDP1 / Fold change vs veh, BDP1 / RFU, LRRCC1 / Fold change vs veh, LRRCC1 / RFU, ARID1A / Fold change vs veh, ARID1A / RFU, ZNF146 / Fold change vs veh, ZNF146 / RFU, ZNF330 / Fold change vs veh, ZNF330 / RFU, GPN3 / Fold change vs veh, GPN3 / RFU, C9orf123 / Fold change vs veh, C9orf123 / RFU, N4BP2L2 / Fold change vs veh, N4BP2L2 / RFU, ARFIP1 / Fold change vs veh, ARFIP1 / RFU, FAM179B / Fold change vs veh, FAM179B / RFU, BCL10 / Fold change vs veh, BCL10 / RFU, UHRF1BP1L / Fold change vs veh, UHRF1BP1L / RFU, BET1 / Fold change vs veh, BET1 / RFU, CNOT2 / Fold change vs veh, CNOT2 / RFU, ZNF268 / Fold change vs veh, ZNF268 / Fold change vs veh, ZNF507 / RFU, DGCR2 / Fold change vs veh, DGCR2 / RFU, WDSUB1 / Fold change vs veh, WDSUB1 / Fold change vs veh, HSP90B1 /// MIR3652 / RFU, ADSS / Fold change vs veh, ADSS / RFU, GK / Fold change vs veh, GK / RFU, ZNF148 / Fold change vs veh, ZNF148 / RFU, TAF9 / Fold change vs veh, TAF9 / RFU, SLC1A5 / Fold change vs veh, SLC1A5 / RFU, SLMO2 / Fold change vs veh, SLMO2 / RFU, ABCC4 / Fold change vs veh, ABCC4 / RFU, LOC101060439 /// RAP1B / Fold change vs veh, LOC101060439 /// RAP1B / RFU, RFX7 / Fold change vs veh, RFX7 / RFU, GTPBP10 / Fold change vs veh, GTPBP10 / RFU, CNEP1R1 / Fold change vs veh, CNEP1R1 / RFU, BIVM-ERCC5 /// ERCC5 / Fold change vs veh, BIVM-ERCC5 /// ERCC5 / RFU, ILF3 / Fold change vs veh, ILF3 / RFU 11762660_at / Fold change /veh 11762660_at / RFU VCAN (11757783_s_at) / Fold change /veh VCAN (11757783_s_at) / RFU DDX43 (11728927_at) / Fold change /veh DDX43 (11728927_at) / RFU KRT8 (11758188_x_at) / Fold change /veh KRT8 (11758188_x_at) / RFU NKD1 (11759106_at) / Fold change /veh NKD1 (11759106_at) / RFU SRD5A1 (11742802_a_at) / Fold change /veh SRD5A1 (11742802_a_at) / RFU TPSAB1 /// TPSB2 (11721975_s_at) / Fold change /veh TPSAB1 /// TPSB2 (11721975_s_at) / RFU GSTM3 (11746129_a_at) / Fold change /veh GSTM3 (11746129_a_at) / RFU IL23R (11737362_x_at) / Fold change /veh IL23R (11737362_x_at) / RFU TMEM51 (11727254_a_at) / Fold change /veh TMEM51 (11727254_a_at) / RFU PIWIL2 (11732686_x_at) / Fold change /veh PIWIL2 (11732686_x_at) / RFU ORM1 (11744905_x_at) / Fold change /veh ORM1 (11744905_x_at) / RFU CCDC152 (11743942_at) / Fold change /veh CCDC152 (11743942_at) / RFU ECM1 (11717891_a_at) / Fold change /veh ECM1 (11717891_a_at) / RFU IL23R (11748794_a_at) / Fold change /veh IL23R (11748794_a_at) / RFU TNFAIP8L3 (11732012_x_at) / Fold change /veh TNFAIP8L3 (11732012_x_at) / RFU MBOAT4 (11741988_at) / Fold change /veh MBOAT4 (11741988_at) / RFU 11764193_at / Fold change /veh 11764193_at / RFU TMEM53 (11763286_at) / Fold change /veh TMEM53 (11763286_at) / RFU MAGEB2 (11727129_at) / Fold change /veh MAGEB2 (11727129_at) / RFU TMEM200A (11744735_a_at) / Fold change /veh TMEM200A (11744735_a_at) / RFU CCDC152 (11751479_a_at) / Fold change /veh CCDC152 (11751479_a_at) / RFU FAM211A (11726209_a_at) / Fold change /veh FAM211A (11726209_a_at) / RFU RGS16 (11746705_a_at) / Fold change /veh RGS16 (11746705_a_at) / RFU VCAN (11755009_s_at) / Fold change /veh VCAN (11755009_s_at) / RFU RHOB (11743442_s_at) / Fold change /veh RHOB (11743442_s_at) / RFU RGS16 (11720943_a_at) / Fold change /veh RGS16 (11720943_a_at) / RFU RGS16 (11720944_at) / Fold change /veh RGS16 (11720944_at) / RFU, VPS4B / Fold change vs veh, VPS4B / RFU, CREB1 / Fold change vs veh, CREB1 / RFU, DNAJC13 / Fold change vs veh, DNAJC13 / RFU, GNAQ / Fold change vs veh, GNAQ / RFU, CDK5R1 / Fold change vs veh, CDK5R1 / RFU, ZRANB3 / Fold change vs veh, ZRANB3 / RFU, CUL4A / Fold change vs veh, CUL4A / RFU, CCNY / Fold change vs veh, CCNY / RFU, UFL1 / Fold change vs veh, UFL1 / RFU, COG3 / Fold change vs veh, COG3 / RFU, DIAPH2 / Fold change vs veh, DIAPH2 / RFU, SKA2 / Fold change vs veh, SKA2 / RFU, AFF3 / Fold change vs veh, AFF3 / RFU, LMF1 / Fold change vs veh, LMF1 / RFU, IPO11 / Fold change vs veh, IPO11 / RFU, DFFB / Fold change vs veh, DFFB / RFU, FOXP1 / Fold change vs veh, FOXP1 / RFU, CARD8 / Fold change vs veh, CARD8 / RFU, STRN3 / Fold change vs veh, STRN3 / RFU, ADK / Fold change vs veh, ADK / RFU, RASSF2 / Fold change vs veh, RASSF2 / RFU, WIPF1 / Fold change vs veh, WIPF1 / RFU, LARP1B / Fold change vs veh, LARP1B / RFU, RASA1 / Fold change vs veh, RASA1 / RFU, RB1 / Fold change vs veh, RB1 / RFU, PPFIA1 / Fold change vs veh, PPFIA1 / RFU, MAT2A / Fold change vs veh, MAT2A / RFU, CCT5 / Fold change vs veh, CCT5 / RFU, WDR92 / Fold change vs veh, WDR92 / RFU, CUX1 / Fold change vs veh, CUX1 / RFU, TTC7A / Fold change vs veh, TTC7A / RFU, TMEM135 / Fold change vs veh, TMEM135 / RFU, DEPTOR / Fold change vs veh, DEPTOR / RFU, CPM / Fold change vs veh, CPM / RFU, DNAJB6 / Fold change vs veh, DNAJB6 / RFU, CACNA2D3 / Fold change vs veh, CACNA2D3 / RFU, DTX4 / Fold change vs veh, DTX4 / RFU, TFCP2 / Fold change vs veh, TFCP2 / RFU, GMCL1 /// GMCL1P1 / Fold change vs veh, GMCL1 /// GMCL1P1 / RFU, AEBP2 / Fold change vs veh, AEBP2 / RFU, SNHG1 /// SNORD22 /// SNORD25 /// SNORD26 /// SNORD27 /// SNORD28 /// SNORD29 /// SNORD31 / Fold change vs veh, SNHG1 /// SNORD22 /// SNORD25 /// SNORD26 /// SNORD27 /// SNORD28 /// SNORD29 /// SNORD31 / Fold change (Aza/veh), C12orf56 (ProbeSet 11735607_a_at) / Fold change (ACY-1035/veh), C12orf56 (ProbeSet 11735607_a_at) / Fold change (Aza/veh), FGFR1OP (ProbeSet 11751329_s_at) / Fold change (ACY-1035/veh), FGFR1OP (ProbeSet 11751329_s_at) / Fold change (Aza/veh), VPS36 (ProbeSet 11739960_a_at) / Fold change (ACY-1035/veh), VPS36 (ProbeSet 11739960_a_at) / RFU SYPL1 (11715823_x_at) / Fold change /veh SYPL1 (11715823_x_at) / RFU IGFBP7 (11715501_s_at) / Fold change /veh IGFBP7 (11715501_s_at) / RFU REEP3 (11722064_at) / Fold change /veh REEP3 (11722064_at) / RFU IGLL1 (11728026_x_at) / Fold change /veh IGLL1 (11728026_x_at): dose or concentration left out as unconfirmed
Settings: MV-4-11 cells, 48 hours

SMILES: Nc1ncn([C@@H]2O[C@H](CO)[C@@H](O)[C@H]2O)c(=O)n1 [azacitidine]
- RFU TNFAIP8L3 (11732012_x_at): 9.37 RFU
